The values that follow come from article PMC9606171, “Synthetic PPAR Agonist DTMB Alleviates Alzheimer’s Disease Pathology by Inhibition of Chronic Microglial Inflammation in 5xFAD Mice” (Neurotherapeutics, 2022).

Data set [1] has as its system BV2 microglia cells. Description: ELISA of proinflammatory cytokines, BV2 microglia cells. It is filed as cell-based, mouse. As to conditions: LPS or pre-aggregated human Aβ1-42, 24 h. The method, then:
We measured cytokine level (TNF-α, IL-1β, and IL-6) in the media of LPS (1 μg/mL) and human Aβ1-42 (5 μg/mL)-treated BV2 microglia cells and primary microglia. Human Aβ1-42 (AnaSpec, Fremont, CA, USA) were pre-aggregated in the incubator for 24 h before the treatment to the cells. BV2 cells and primary microglia cells were seeded on 12-well plates (SPL) at a density of 1 × 10^5 cells/well cultured in 1 mL of complete media. After 12 h, LPS or human Aβ1-42 were treated to cells and were further incubated for 24 h with DTMB. ELISA experiments were conducted by using mouse TNF-α ELISA kit (Invitrogen, BMS607-3TEN), mouse IL-1β ELISA kit (Invitrogen, BMS6002), and mouse IL-6 ELISA kit (Invitrogen, BMS603-2) according to the manufacturer’s instruction.

The subject of data set [2] is 5xFAD mice. Kind of data set: Soluble/insoluble Aβ extraction, western blot and filter-trap assay. It is filed as in vivo. As to conditions: 10 mg/kg orally, 3 months. The method, then:
DTMB was synthesized from Daejung Chemicals (Korea) and was dissolved in dimethyl sulfoxide (Sigma Aldrich, St. Louis, MO, USA) for cell-based experiments. To evaluate the effects of DTMB on 5xFAD mice, DTMB (10 mg/kg) and vehicle (1% carboxymethylcellulose and 10% DMSO) were orally administrated to four groups (wild-type, wild-type + DTMB, 5xFAD, and 5xFAD + DTMB) with a 6 day per week for 3 months.
To investigate soluble and insoluble Aβ components, two extraction steps were performed. Left hemisphere samples were homogenized in cold Tris-buffered saline (TBS consisting of 50 mM Tris-pH 7.5 and 150 mM NaCl) with a protease inhibitor cocktail (Thermo Fisher Scientific, Waltham, MO, USA) at a concentration of 100 mg/mL. After centrifugation at 15,000 rpm for 1 h at 4 °C, the supernatant of the samples was used to conduct western blotting. Insoluble protein was extracted from the pellet by dissolving in 5 M guanidine buffer (5 M guanidine HCl and 150 mM NaCl-pH 7.5). Soluble and insoluble protein samples were stored at −80 °C.
The insoluble fraction of protein lysates in 5xFAD mice was diluted in 1% SDS-PBS and boiled at 95 °C for 5 min. The membrane was pre-equilibrated with 1 × TBS. A dot blotter apparatus (Bio-Rad Laboratories, Hercules, CA, USA) was used for sample application, and 6e10 antibody was used to detect Aβ contents from brain lysates of 5xFAD mice treated with DTMB. […]

Data set [3] can be described thus: Pharmacokinetics and brain distribution after oral administration. It is filed as in vivo, C57BL/6 mice. As to conditions: male, C57BL/6, mouse, mice; for Kp: brain / plasma, po, 50 mg/kg. As for the experimental part: To investigate the pharmacokinetics and brain distribution of DTMB, fifty-six male C57BL/6 mice (22–26 g) were fasted with water ad libitum for 16 h before oral administration of DTMB and randomly divided into seven groups (n=8 per each sampling time point). Mice were administered with a DTMB suspension in 1% carboxymethylcellulose at a dose of 50 mg/kg via oral gavage, and blood samples (approximately 0.1 mL) were collected at 0, 0.16, 0.5, 1, 4, 8, and 24 h via the abdominal artery. Subsequently, whole brain tissues were isolated, weighed, and homogenized with two volume of ice-cold 80% methanol solution using a tissue grinder. Blood samples were centrifuged at 12,000 g for 1 min to separate plasma. Aliquots of plasma (30 µL) and brain homogenate (50 µL) samples were stored at − 80 °C until analysis. Concentrations of DTMB in plasma and brain homogenate samples were analyzed using an Agilent 6470 triple quadrupole liquid chromatography-mass spectrometry (LC–MS/MS) system (Agilent, Wilmington, DE, USA). Aliquots of plasma (30 µL each) and brain homogenate (50 µL each) were added to 100 μL of internal standard solution (IS; berberin 0.1 ng/mL in methanol) and vigorously mixed for 5 min. After centrifugation at 16,000 g for 10 min, a 5 µL aliquot of the supernatant was injected into the LC–MS/MS system. DTMB was separated on a Synergi Polar RP column (2.0 × 150 mm, 4 μm particle size; Phenomenex, Torrence, CA, USA) using an isocratic mobile phase consisting of 10 mM ammonium formate buffer (10%) and methanol (90%) containing 0.1% formic acid at a flow rate of 0.25 mL/min. Quantification of the analyte peaks was carried out at m/z 513.2 → 283.0 for DTMB (TR (retention time) 4.7 min) and m/z 336.1 → 320.0 for berberine (TR 2.9 min) in a […] ionization mode with optimized fragmentor of 135 V and collision energy of 25 or 30 eV, respectively. The pharmacokinetic parameters of DTMB in the plasma and brain were determined by the non-compartmental analysis (WinNonlin® 5.1; Pharsight, Mountain View, CA, USA). Elimination half-life (T1/2) was calculated from the elimination coefficient (K) of DTMB concentrations. Cmax indicated the maximum plasma concentrations and Tmax indicated time to reach Cmax. AUClast and AUCinf were calculated from the area under plasma concentrations curve from zero to the last time point and to infinity, respectively.

Data set [4] deals with primary microglia. Kind of data set: ELISA of proinflammatory cytokines, primary microglia. Type of data set: cell-based, mice. Conditions: LPS or pre-aggregated human Aβ1-42, 24 h. As for the experimental part: Primary microglia culture was conducted as described in a previous study. Mice at postnatal day 3 mice were used for the preparation of primary microglia. Newborn mice pups were anesthetized in ice and then sacrificed. Isolated cortex and hippocampus were collected after removing the meninges. Brain tissues were dissociated by incubating in HBSS (Gibco, Gaithersburg, MD, USA) with trypsin (2.5%) for 15 min. Cell homogenates were then incubated in M-CSF (20 ng/mL, R&D Systems) supplemented with DMEM-F12 medium with 10% fetal bovine serum, 10% horse serum, 1% GlutaMAX (Gibco, MD, USA), and 1% penicillin/streptomycin (Welgene, Korea). After 10 days, microglia were purified through shaking at 260 rpm for 2 h.
We measured cytokine level (TNF-α, IL-1β, and IL-6) in the media of LPS (1 μg/mL) and human Aβ1-42 (5 μg/mL)-treated BV2 microglia cells and primary microglia. Human Aβ1-42 (AnaSpec, Fremont, CA, USA) were pre-aggregated in the incubator for 24 h before the treatment to the cells. BV2 cells and primary microglia cells were seeded on 12-well plates (SPL) at a density of 1 × 10^5 cells/well cultured in 1 mL of complete media. After 12 h, LPS or human Aβ1-42 were treated to cells and were further incubated for 24 h with DTMB. […]

Each structure is given as a SMILES string. Where two headings read alike, the source gives them in different places.

Take `COc1ccc(-c2cc(=O)oc3c(C)c(OC(=O)[C@H](Cc4c[nH]c5ccccc45)NC(=O)OC(C)(C)C)ccc23)cc1` [DTMB]: the “level of cytokines (TNF-α, IL-1β, IL-6) induced by inflammatory signals” value in data set [1] and in data set [4] was “dramatically reduced” in each case. The “Aβ aggregates in the insoluble fraction” value in data set [2] (5xFAD mice brain lysates) is “decreased”. The amyloid beta monomer entry in data set [2] (5xFAD mice brain) is “not decreased”. The Kp turned out to be 2.69 in data set [3] (oral, plasma concentration range 0.63–66.9 ng/mL, read-out: mean brain DTMB concentration ratio over the plasma DTMB ([Brain]/[Plasma])) and 3.53 in data set [3] (printed in the Brain column, 50 mg/kg oral, read-out: AUC ratio). The time to peak (Tmax) came to 0.94 ± 0.18 h in data set [3] (Brain, 50 mg/kg oral) and 0.75 ± 0.27 h in data set [3] (Plasma, 50 mg/kg oral). The half-life was 4.41 ± 1.11 h in data set [3] (Brain, 50 mg/kg oral) and 1.64 ± 0.27 h in data set [3] (Plasma, 50 mg/kg oral).
